According to patent US20090306159A1, “Inhibition of Intermediate-Conductance Calcium Activated Potassium Channels in the Treatment and/or Prevention of Atherosclerosis” (The Regents of the University, priority 2005, published 2009):

How the values were obtained:
[1] = test system: human coronary artery smooth muscle cells (HCSMCs); assay: Cell proliferation assay (cell count with hemocytometer) in PDGF-stimulated HCSMCs; format: cell-based; settings: for cell number of HCSMCs: 48 hours, n=7
Method: (§1) Cell proliferation assays: Cell proliferation assays were performed as previously reported. Briefly, quiescent HCSMCs seeded at a density of 4×10^4/well in 6-well plates were stimulated by 20 ng/mL PDGF in the presence or absence of 10^−7 M TRAM-34, a selective IKCa blocker. Forty eight hours after stimulation, the number of cells was counted with a hemocytometer (MARIENFELD, Lauda-Konigshofen Germany). In another set of experiments, a BrdU cell proliferation assay was also performed with quiescent cells in 96-well plates at a density of 1×10^4/well according to the manufacturer's instructions (Colorimetric Cell Proliferation ELISA, Roche, Penzberg Germany). In this study, BrdU (10^−5 M in medium) was applied 24 hours prior to the measurements.

[2] = test system: human coronary artery smooth muscle cells (HCSMCs); assay: BrdU cell proliferation assay (DNA synthesis) in HCSMCs; format: cell-based
Method: as §1

[3] = test system: c-fos; assay: Western blot of c-fos expression in HCSMCs; format: cell-based, human; settings: PDGF + TRAM-34
Excerpt: Western blot analysis: Total cell lysates or membrane fractions were harvested and protein samples separated on an electrophoresis gel by SDS-PAGE and then transferred to a PVDF membrane. The gels were stained in Coomassie blue to confirm equal protein loading. Membranes were blocked with 10% nonfat dried milk, blotted with primary antibodies (BKCa α-subunit [Affinity BioReagents], c-fos [Santa Cruz, Inc.] and IKCa) and subsequently probed with a horseradish peroxidase-labeled donkey anti-rabbit antibody (1:5,000˜10,000 [Santa Cruz, Inc.]). The bound antibody was detected by chemiluminescence (ECL Plus, Amersham). The polyclonal primary antibody against human and mouse IKCa was obtained from sera of rabbits immunized using oligopeptides with following amino acids sequences; H-LNASYRSIGALNQVRC-NH2 (S4-5 of human and mouse IKCa).

[4] = test system: human coronary artery smooth muscle cells (HCSMCs); assay: Transwell cell migration assay in HCSMCs; format: cell-based
Method: Cell migration assay: A Cell migration assay was carried out with the Transwell system (Corning, Acton, Mass.) as previously reported. Briefly, cells (3×10^5 cells/mL) were seeded onto the upper chamber of Transwells, and the lower chamber was filled with serum-free medium containing 20 ng/ml PDGF. TRAM-34 (10^−8˜10^−7 M) was added to both chambers. After 8-hour stimulation, migrated cells were fixed and stained with the Diff-Quick Stain (IMEB Inc. Chicago, Ill.) and counted under a microscope.

[5] = test system: ApoE knockout mice; assay: Development of atherosclerosis in ApoE knockout mice on high-cholesterol diet (long-term IKCa1 blockade); format: in vivo, mouse; settings: ApoE KO mice, long-term TRAM-34
Method: Mouse treatment: C57BL/6J male mice (wild type [WT] n=11 and ApoE deficient type [EKO] n=38, The Jackson Laboratory) were used. EKO mice were weaned at 4 weeks of age onto a high-cholesterol diet (1.3% cholesterol; TD 96121, Harian/Teklad) and treated with daily subcutaneous injection of TRAM-34 (120 mg/kg/day) or vehicle (peanut oil) for 12 weeks. Littermate war mice were used as the control group in the experiments. Mice were provided diet and water ad libitum and maintained on a 12-hour light/dark cycle. All animal experiments were conducted according to the Guidelines for Animal Experiments at Medical College of Wisconsin.
Histological analysis of atherosclerosis in mouse aortas: Isolation of aortas and quantification of atherosclerosis were performed as previously described. Briefly, aortas (from aortic arch to iliac bifurcation) were opened longitudinally, pinned onto a silicon-coated dish, fixed with 4% paraformaldehyde, and stained in 1.0% (v/w) Sudan III solution (The Science Company, Denver, Colo.). Images were acquired using a digital camera (C-755, Minolta), and the surface area of atherosclerotic lesions was measured as the percentage of total area of the opened aorta using imaging software, MetaMorph (Universal Imaging Corp).

[6] = Body weight, heart weight, blood pressure, heart rate, plasma cholesterol and deaths in treated mice; format: in vivo, mouse
Method: Mouse treatment: C57BL/6J male mice (wild type [WT] n=11 and ApoE deficient type [EKO] n=38, The Jackson Laboratory) were used. […] Littermate war mice were used as the control group in the experiments. Mice were provided diet and water ad libitum and maintained on a 12-hour light/dark cycle. All animal experiments were conducted according to the Guidelines for Animal Experiments at Medical College of Wisconsin.
Hemodynamic analysis of mice: At 16 weeks of age, mice were anesthetized, and right femoral arteries were cannulated for continuous measurement of arterial pressure and heart rate (pressure transducer; Bioresearch Center, Nagoya, Japan) and recorded continuously by computer for 30 min.
Plasma lipid analysis: Plasma was obtained by centrifugation of blood and stored at −80° C. until each assay was performed. Plasma cholesterol levels were analyzed by General Medical Laboratories (Madison, Wis.).

[7] = target: BKCa (Homo sapiens, UniProt Q12791); assay: Videomicroscopy: vasodilation of human coronary arterioles to BKCa opener; settings: endothelium-denuded human vessels, 3×10^-6 M, n=3
Sequence of BKCa (Homo sapiens, UniProt Q12791) (Q12791 whole entry): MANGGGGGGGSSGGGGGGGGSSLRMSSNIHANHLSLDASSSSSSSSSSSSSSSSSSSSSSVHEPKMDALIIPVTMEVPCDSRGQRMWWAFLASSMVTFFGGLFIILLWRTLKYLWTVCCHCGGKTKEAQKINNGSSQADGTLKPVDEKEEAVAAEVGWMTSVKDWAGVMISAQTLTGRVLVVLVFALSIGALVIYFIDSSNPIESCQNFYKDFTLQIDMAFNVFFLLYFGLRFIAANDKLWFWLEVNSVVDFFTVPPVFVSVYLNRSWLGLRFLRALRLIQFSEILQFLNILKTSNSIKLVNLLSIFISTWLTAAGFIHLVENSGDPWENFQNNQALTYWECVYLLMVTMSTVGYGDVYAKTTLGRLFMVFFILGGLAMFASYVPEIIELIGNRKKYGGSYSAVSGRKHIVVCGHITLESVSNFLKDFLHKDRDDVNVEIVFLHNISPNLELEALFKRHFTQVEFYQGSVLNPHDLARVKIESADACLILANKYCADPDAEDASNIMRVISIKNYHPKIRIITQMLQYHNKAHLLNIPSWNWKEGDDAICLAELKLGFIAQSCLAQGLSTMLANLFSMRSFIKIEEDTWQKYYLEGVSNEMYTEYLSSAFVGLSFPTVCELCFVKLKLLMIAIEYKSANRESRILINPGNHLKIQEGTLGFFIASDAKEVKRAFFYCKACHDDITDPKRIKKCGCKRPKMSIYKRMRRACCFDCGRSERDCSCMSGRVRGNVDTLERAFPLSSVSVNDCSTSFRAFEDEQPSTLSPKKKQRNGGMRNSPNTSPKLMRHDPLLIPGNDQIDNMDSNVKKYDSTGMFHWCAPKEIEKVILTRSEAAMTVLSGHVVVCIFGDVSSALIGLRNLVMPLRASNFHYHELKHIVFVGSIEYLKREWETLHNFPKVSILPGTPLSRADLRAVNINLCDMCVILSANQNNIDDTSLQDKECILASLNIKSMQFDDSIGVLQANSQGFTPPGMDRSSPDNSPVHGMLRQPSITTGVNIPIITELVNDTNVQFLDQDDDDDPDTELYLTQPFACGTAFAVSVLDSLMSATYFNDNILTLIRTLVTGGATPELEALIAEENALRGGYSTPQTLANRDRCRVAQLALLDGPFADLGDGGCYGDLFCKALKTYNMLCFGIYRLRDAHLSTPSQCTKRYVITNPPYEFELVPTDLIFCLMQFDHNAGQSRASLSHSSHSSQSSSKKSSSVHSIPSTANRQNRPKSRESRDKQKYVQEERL
Sequence of BKCa (Homo sapiens, UniProt Q12791) (Q16558 whole entry partner): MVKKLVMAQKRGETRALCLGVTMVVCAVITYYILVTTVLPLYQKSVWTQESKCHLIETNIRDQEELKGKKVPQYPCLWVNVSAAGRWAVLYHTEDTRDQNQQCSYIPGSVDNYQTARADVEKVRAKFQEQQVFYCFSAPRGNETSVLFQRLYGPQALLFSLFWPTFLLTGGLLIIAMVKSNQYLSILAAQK
Method: (§2) Videomicroscopy: The preparation for videomicroscopy has been previously described. Vasomotor and endothelial function was confirmed by measuring constriction to 50 mM KCl and dilation to acetylcholine (ACh, 10^−4 M, mouse vessels pressurized at 40 mmHg) or to bradykinin (10^−7 mol/L, human vessels at 60 mmHg). Vessels were preconstricted with U46619 (10^−9˜10^−8 M for mouse vessels) or ACh (10^−8˜5×10^−7 M for human vessels) to adjust tone to a level between 30% to 50% of passive diameter. […] In some experiments, endothelial cells (ECs) were denuded.
(§3) Statistical Analysis: All data are expressed as mean±SE. […] Percent dilation was calculated as the percent change from the preconstricted diameter to the passive diameter in Ca^2+-free Krebs containing 10^−4 M papaverine. Percent constriction or basal tone was determined by calculating the percent reduction in the passive diameter. To compare dose-response relationships between treatment groups, a two-way ANOVA supported by a Bonferroni post hoc test was used. Statistical comparisons of maximal percent vasodilation and basal tone under different treatments were performed by paired Student's t test. […] Statistical significance was defined as a value of P<0.05.

[8] = target: BKCa (Mus musculus, UniProt Q08460); assay: Videomicroscopy: vasodilation of mouse carotid artery segments to BKCa opener; settings: endothelium-denuded carotid artery segments
Sequence of BKCa (Mus musculus, UniProt Q08460) (Q08460 whole entry): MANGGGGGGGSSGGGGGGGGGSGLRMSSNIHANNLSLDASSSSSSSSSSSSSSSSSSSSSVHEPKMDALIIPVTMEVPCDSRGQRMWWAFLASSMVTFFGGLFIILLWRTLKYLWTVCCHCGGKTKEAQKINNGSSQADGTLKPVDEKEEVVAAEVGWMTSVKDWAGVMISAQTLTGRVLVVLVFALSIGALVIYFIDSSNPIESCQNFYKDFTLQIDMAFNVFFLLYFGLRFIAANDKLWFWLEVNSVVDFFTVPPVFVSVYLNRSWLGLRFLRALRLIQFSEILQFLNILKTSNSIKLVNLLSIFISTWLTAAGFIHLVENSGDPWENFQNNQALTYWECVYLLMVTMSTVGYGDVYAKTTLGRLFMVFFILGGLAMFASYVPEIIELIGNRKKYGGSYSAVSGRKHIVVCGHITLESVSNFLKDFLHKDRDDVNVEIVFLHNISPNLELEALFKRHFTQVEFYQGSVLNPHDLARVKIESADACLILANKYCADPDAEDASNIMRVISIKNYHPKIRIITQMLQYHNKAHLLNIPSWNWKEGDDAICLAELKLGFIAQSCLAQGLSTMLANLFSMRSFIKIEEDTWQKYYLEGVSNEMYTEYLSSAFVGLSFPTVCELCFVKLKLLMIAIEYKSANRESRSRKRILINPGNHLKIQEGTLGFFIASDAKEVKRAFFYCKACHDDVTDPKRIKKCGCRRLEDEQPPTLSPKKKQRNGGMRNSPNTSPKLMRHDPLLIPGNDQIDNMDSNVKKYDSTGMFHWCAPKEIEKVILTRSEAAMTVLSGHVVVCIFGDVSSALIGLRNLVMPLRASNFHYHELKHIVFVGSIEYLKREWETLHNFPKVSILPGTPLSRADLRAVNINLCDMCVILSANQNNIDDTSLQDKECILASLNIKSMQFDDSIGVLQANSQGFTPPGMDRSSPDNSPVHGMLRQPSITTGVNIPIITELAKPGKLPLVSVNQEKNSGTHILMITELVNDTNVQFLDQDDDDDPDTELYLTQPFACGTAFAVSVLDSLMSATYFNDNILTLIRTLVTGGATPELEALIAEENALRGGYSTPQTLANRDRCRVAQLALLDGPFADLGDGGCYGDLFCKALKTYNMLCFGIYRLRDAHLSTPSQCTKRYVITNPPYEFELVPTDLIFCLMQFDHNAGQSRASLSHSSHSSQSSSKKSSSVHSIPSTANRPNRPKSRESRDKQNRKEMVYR
Sequence of BKCa (Mus musculus, UniProt Q08460) (Q8CAE3 whole entry partner): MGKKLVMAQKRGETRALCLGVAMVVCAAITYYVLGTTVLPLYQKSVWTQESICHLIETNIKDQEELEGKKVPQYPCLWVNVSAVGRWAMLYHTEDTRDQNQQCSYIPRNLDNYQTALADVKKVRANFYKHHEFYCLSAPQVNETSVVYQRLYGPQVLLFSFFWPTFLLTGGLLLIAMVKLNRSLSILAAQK
Method: as §2, §3

[9] = test system: IKCa mRNA; assay: Real-time RT-PCR of IKCa mRNA in HCSMCs; format: cell-based, human; settings: PDGF 20 ng/ml, at 6 h, n=5
Excerpt: (sense) and [NT] (antisense); for [NT] (sense) and [NT] (antisense).

[10] = among the groups (WT, ApoE KO vehicle, ApoE KO TRAM-34)
[11] = long-term treatment, anesthetized mice

For `Clc1ccccc1C(c1ccccc1)(c1ccccc1)n1cccn1` [TRAM-34, 1-[(2-chlorophenyl)diphenylmethyl]-1H-pyrazole], which “cell number of HCSMCs” value ([1]; PDGF + TRAM-34 at 10^-7 M) is on record?
Its value is 1.1±0.1 fold of control.

And the cell viability ([1]; PDGF+TRAM-34 or TRAM-34 alone, HCSMCs)?
The cell viability was “did not affect cell viability”.

What about the “effect on HCSMC proliferation” value ([1]; in the absence of PDGF) of the same molecule?
Its value is “had no effect”.

What about the “DNA synthesis (BrdU incorporation)” value ([2]; PDGF + TRAM-34, n=26) of the same molecule?
Its value is 2.2±0.2 fold of control.

And the “effect on DNA synthesis” value ([2]; TRAM alone, no PDGF, n=6)?
Its value is “had no effect”.

And the “PDGF-induced up-regulation of c-fos protein” value [3]?
The value was “markedly reduced”.

And the HCSMC migration ([4]; PDGF + TRAM-34, 8-hour stimulation, n=4)?
Its HCSMC migration is 2392 fold of control.

What about the “accumulation of macrophages in the plaques” value [5] of the same molecule?
The value was “decreased”.

And the “nitric oxide-mediated component of endothelium-dependent vasodilation” value [5]?
Its value is “restored”.

And the “plasma level of MCP-1” value [5]?
Its value is “reduced”.

What about the “plasma level of TNF-alpha” value [5] of the same molecule?
Its value is “reduced”.

What about the deaths during treatment ([6]; 14-week treatment, unknown reasons, same in vehicle group) of the same molecule?
Its deaths during treatment is “One mouse”.

What about the plasma cholesterol levels ([6]; ApoE KO mice, TRAM-34 vs vehicle) of the same molecule?
The plasma cholesterol levels was “no significant difference”.

What about the body weight [6, 10] of the same molecule?
The body weight was “no significant differences”.

What about the heart weight [6, 10] of the same molecule?
The heart weight was “no significant differences”.

What about the blood pressure [6, 11] of the same molecule?
Its blood pressure is “unaltered”.

What about the heart rate [6, 11] of the same molecule?
The heart rate was “unaltered”.

With `C=C[C@@]1(C)C=C2CC[C@@H]3[C@](C)(CCC[C@@]3(C)C(=O)O)[C@H]2CC1` [pimaric acid] as the molecule, how does the vasodilation ([7]; CAD subjects) read?
Its vasodilation is 31±3%.

And the vasodilation ([7]; non-CAD subjects)?
Its vasodilation is 56±6%.

What about the “% max. dilation” value ([8]; ApoE KO mice) of the same molecule?
Its value is 9±3%.

And the “% max. dilation” value ([8]; WT mice, 10^-5 M)?
Its value is 55±10%.

With “platelet-derived growth factor-BB [PDGF]” as the molecule, how does the “cell number of HCSMCs” value ([1]; PDGF alone (20 ng/mL)) read?
The value was 1.6±0.1 fold of control.

And the “DNA synthesis (BrdU incorporation)” value ([2]; PDGF alone, n=26)?
The value was 2.8±0.3 fold of control.

What about the HCSMC migration ([4]; PDGF alone (20 ng/ml), 8-hour stimulation, n=10) of the same molecule?
The HCSMC migration was 32±4 fold of control.

And the “IKCa mRNA expression, max response” value [9]?
Its value is 4.2±1.0 fold.

For `COc1ccc(Cl)cc1C(=O)NCCc1ccc(S(=O)(=O)NC(=O)NC2CCCCC2)cc1` [Glibenclamide, reference compound], which “effect on PDGF-induced HCSMC proliferation” value ([1]; with PDGF, data not shown, n=4) is on record?
Its value is “had no effect”.
